Data as given in patent US12071408B2, “Multi-targeted tyrosine kinase inhibitors effective in antitumor uses” (Shanghai AB PharmaTech Ltd., priority 2021, dated 2024).

Experiments:
EGFR = EGFR (Homo sapiens (Human), UniProt P00533); test: Kinase inhibition, Mobility-Shift Assay; type: biochemical; conditions: class; read-out: EGFR range of activity (IC50)
[1] = system: cervical cancer cell line (Hela); test: Tumor cell proliferation inhibition (CTG, 72 h); type: cell-based; conditions: Homo sapiens; Hela cells, class; read-out: Hela activity effect range (IC50)
[2] = system: thyroid cancer cell line (TT); test: Tumor cell proliferation inhibition (CTG, 72 h); type: cell-based; conditions: Homo sapiens; TT cells, class; read-out: TT range of activity (IC50)
VEGFR-2 (KDR) = VEGFR-2 (KDR) (Homo sapiens (Human), UniProt P35968); test: Kinase inhibition, Mobility-Shift Assay; type: biochemical; conditions: class; read-out: KDR activity effect range (IC50)
C-MET = C-MET (Homo sapiens (Human), UniProt P08581); test: Kinase inhibition, Mobility-Shift Assay; type: biochemical; conditions: class; read-out: C-MET range of activity (IC50)
C-MET, sequence (P08581 25-1390): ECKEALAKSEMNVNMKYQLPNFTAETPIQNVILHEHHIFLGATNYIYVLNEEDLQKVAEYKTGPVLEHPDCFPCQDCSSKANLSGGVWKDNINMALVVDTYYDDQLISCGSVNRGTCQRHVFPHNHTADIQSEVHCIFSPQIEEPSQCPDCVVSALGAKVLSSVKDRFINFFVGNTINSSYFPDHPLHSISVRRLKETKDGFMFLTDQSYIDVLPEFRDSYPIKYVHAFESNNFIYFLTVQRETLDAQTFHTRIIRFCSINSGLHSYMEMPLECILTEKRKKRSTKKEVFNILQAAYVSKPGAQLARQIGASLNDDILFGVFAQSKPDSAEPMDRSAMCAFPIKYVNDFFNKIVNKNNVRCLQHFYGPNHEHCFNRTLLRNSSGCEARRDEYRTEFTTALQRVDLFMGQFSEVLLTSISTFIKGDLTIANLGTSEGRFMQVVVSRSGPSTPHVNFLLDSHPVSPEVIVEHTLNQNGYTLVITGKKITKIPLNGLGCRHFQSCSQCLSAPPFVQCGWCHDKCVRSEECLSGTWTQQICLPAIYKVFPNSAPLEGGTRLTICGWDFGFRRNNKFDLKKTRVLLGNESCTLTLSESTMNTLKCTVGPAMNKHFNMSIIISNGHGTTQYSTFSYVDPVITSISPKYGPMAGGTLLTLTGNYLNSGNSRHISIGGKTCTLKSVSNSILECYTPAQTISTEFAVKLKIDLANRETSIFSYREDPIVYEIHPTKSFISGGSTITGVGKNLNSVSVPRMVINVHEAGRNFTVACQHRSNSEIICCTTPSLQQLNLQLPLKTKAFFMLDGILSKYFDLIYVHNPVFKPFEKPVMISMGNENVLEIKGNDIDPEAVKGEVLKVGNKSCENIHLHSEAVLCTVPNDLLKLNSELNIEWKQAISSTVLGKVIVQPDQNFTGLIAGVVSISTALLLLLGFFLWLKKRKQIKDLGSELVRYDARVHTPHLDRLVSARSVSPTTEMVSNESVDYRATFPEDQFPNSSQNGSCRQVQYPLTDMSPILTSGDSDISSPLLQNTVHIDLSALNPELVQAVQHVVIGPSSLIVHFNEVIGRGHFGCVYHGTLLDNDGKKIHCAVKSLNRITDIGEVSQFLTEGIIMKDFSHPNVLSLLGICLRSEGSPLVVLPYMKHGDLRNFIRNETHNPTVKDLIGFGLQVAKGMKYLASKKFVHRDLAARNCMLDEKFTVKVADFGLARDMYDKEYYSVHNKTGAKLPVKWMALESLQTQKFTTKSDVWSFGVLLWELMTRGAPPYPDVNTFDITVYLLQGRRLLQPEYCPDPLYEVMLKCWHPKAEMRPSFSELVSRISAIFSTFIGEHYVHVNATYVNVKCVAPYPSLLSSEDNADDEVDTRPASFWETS

[3] = system: hepatocellular carcinoma cell line (Hep3B 2.1-7); test: Tumor cell proliferation inhibition (CTG, 72 h); type: cell-based; conditions: Homo sapiens; Hep3B 2.1-7 cells, class; read-out: Hep3B 2.1-7 range of activity (IC50)
FGFR2 = FGFR2 (Homo sapiens (Human), UniProt P21802); test: Kinase inhibition, Mobility-Shift Assay; type: biochemical; conditions: class; read-out: FGFR2 range of activity effects (IC50)
FGFR2, sequence (P21802 22-821): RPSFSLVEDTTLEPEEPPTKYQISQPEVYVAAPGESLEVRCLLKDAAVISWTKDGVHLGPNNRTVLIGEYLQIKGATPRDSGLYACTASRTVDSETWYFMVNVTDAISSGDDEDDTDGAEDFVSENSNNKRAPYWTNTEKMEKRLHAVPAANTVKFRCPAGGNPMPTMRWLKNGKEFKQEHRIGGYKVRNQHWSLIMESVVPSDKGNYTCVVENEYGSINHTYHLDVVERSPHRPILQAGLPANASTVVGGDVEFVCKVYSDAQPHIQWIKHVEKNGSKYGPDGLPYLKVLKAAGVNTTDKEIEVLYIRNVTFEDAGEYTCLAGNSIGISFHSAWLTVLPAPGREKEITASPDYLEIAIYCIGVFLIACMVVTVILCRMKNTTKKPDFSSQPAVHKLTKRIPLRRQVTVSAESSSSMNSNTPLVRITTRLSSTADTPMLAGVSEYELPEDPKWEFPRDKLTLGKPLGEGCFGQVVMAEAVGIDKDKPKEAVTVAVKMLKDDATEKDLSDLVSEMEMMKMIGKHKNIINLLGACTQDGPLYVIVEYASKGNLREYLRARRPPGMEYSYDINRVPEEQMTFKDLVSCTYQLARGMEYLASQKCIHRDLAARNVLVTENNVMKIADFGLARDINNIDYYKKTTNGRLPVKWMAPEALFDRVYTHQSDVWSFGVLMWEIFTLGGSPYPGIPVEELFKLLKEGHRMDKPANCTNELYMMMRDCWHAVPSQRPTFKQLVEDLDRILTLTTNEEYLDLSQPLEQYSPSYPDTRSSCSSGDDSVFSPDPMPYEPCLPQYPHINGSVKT

[4] = system: leukemia cell line (K562); test: Tumor cell proliferation inhibition (CTG, 72 h); type: cell-based; conditions: Homo sapiens; K562 cells, class; read-out: K562 activity effect range (IC50)
[5] = system: bladder cancer cell line (RT112/84); test: Tumor cell proliferation inhibition (CTG, 72 h); type: cell-based; conditions: Homo sapiens; RT112/84 cells, class; read-out: RT112/84 range of activity (IC50)
FGFR4 = FGFR4 (Homo sapiens (Human), UniProt P22455); test: Kinase inhibition, Mobility-Shift Assay; type: biochemical; conditions: class; read-out: FGFR4 range of activity effects (IC50)
FGFR4, sequence (P22455 22-802): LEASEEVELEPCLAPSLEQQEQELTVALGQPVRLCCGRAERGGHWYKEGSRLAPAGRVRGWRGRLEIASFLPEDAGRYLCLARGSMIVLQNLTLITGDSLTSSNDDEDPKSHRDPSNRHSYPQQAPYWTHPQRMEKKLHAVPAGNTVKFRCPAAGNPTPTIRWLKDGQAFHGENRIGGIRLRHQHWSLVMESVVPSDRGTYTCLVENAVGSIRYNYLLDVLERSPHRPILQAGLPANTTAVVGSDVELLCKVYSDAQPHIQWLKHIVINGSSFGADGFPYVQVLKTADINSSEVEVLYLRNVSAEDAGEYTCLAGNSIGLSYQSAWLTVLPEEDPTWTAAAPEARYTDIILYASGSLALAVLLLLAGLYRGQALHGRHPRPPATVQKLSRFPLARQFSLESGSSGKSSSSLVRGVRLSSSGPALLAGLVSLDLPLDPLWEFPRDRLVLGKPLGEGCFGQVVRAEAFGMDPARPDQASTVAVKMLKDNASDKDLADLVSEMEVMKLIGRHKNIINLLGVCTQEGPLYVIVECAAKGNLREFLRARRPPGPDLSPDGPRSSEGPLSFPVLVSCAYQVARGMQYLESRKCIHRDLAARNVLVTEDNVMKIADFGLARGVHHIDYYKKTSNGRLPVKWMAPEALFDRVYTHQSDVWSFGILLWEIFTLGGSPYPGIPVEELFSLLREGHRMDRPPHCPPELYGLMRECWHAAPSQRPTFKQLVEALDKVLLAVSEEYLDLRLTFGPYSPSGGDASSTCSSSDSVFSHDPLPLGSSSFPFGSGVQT

EGFR, sequence (P00533 25-1210): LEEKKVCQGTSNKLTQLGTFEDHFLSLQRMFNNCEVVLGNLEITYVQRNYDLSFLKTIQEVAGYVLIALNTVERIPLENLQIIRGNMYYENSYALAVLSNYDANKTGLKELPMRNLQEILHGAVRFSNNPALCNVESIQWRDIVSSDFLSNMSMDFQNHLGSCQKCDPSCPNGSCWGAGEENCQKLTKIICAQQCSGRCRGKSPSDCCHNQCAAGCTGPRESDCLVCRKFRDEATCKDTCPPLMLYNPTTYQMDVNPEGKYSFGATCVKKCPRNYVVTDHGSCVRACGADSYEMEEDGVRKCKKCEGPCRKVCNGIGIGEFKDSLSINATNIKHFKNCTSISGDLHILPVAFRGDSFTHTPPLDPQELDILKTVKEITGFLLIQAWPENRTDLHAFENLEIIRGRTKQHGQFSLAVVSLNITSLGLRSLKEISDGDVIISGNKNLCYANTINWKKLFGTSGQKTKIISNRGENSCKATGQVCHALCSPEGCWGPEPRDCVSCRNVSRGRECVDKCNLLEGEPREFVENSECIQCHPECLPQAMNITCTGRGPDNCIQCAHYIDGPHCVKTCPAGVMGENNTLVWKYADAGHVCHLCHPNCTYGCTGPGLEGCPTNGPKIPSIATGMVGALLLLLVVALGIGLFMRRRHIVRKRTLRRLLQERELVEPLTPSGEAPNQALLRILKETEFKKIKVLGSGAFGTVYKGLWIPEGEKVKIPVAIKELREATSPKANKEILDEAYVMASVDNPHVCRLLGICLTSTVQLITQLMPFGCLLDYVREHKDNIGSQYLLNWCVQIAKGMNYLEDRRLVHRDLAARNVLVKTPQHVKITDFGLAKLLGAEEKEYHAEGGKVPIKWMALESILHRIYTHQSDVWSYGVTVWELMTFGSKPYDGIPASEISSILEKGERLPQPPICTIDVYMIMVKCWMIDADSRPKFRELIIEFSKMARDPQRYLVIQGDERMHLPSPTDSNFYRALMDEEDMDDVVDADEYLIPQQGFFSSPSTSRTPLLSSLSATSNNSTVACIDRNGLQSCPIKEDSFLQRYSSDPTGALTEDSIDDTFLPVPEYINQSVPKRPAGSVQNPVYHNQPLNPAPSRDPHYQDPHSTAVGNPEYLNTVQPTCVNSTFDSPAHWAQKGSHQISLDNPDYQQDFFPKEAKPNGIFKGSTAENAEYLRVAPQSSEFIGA

Row | SMILES | IC50 (EGFR) [nM] | IC50 [1] [nM] | IC50 [2] [nM] | IC50 (VEGFR-2 (KDR)) [nM] | IC50 (C-MET) [nM] | IC50 [3] [nM] | IC50 (FGFR2) [nM] | IC50 [4] [nM] | IC50 [5] [nM] | IC50 (FGFR4) [nM]
1 | COc1cc2nccc(Oc3c(F)cc(NC(=O)N(C)C(C)C)c(Cl)c3F)c2cc1C(N)=O [III-02] | > 100 | > 10000 | > 10000 | > 10 | > 100 | > 5000 | > 100 | > 10000 | > 1000 | > 100
2 | CCC(C)NC(=O)Nc1cc(F)c(Oc2ccnc3cc(OC)c(C(N)=O)cc23)c(F)c1Cl (centres unmarked) [III-03] | > 100 | > 10000 | > 10000 | > 10 | > 100 | > 5000 | > 100 | > 10000 | > 1000 | > 100
3 | COc1cc2nccc(Oc3c(F)cc(NC(=O)NC(C)(C)C)c(Cl)c3F)c2cc1C(N)=O [III-04] | > 100 | > 10000 | > 10000 | > 10 | > 100 | > 5000 | > 100 | > 10000 | > 1000 | > 100
4 | COc1cc2nccc(Oc3c(F)cc(NC(=O)NCC(F)F)c(Cl)c3F)c2cc1C(N)=O [III-05] | > 100 | > 10000 | > 10000 | > 10 | > 100 | > 5000 | > 100 | > 10000 | > 1000 | > 100
5 | COc1cc2nccc(Oc3c(F)cc(NC(=O)NCCO)c(Cl)c3F)c2cc1C(N)=O [III-06] | > 100 | > 10000 | > 10000 | > 10 | > 100 | > 5000 | > 100 | > 10000 | > 1000 | > 100
6 | COc1cc2nccc(Oc3c(F)cc(NC(=O)N[C@@H](C)CO)c(Cl)c3F)c2cc1C(N)=O [III-07] | > 100 | > 10000 | > 10000 | > 10 | > 100 | > 5000 | > 100 | > 10000 | > 1000 | > 100
7 | COc1cc2nccc(Oc3c(F)cc(NC(=O)N[C@H](C)CO)c(Cl)c3F)c2cc1C(N)=O [III-08] | > 100 | > 10000 | > 10000 | > 10 | > 100 | > 5000 | > 100 | > 10000 | > 1000 | > 100
8 | COc1cc2nccc(Oc3c(F)cc(NC(=O)NC[C@H](C)O)c(Cl)c3F)c2cc1C(N)=O [III-09] | > 100 | > 10000 | > 10000 | > 10 | > 100 | > 5000 | > 100 | > 10000 | > 1000 | > 100
9 | COc1cc2nccc(Oc3c(F)cc(NC(=O)NC[C@@H](C)O)c(Cl)c3F)c2cc1C(N)=O [III-10] | > 100 | > 10000 | > 10000 | > 10 | > 100 | > 5000 | > 100 | > 10000 | > 1000 | > 100
10 | COc1cc2nccc(Oc3c(F)cc(NC(=O)NC(C)(C)CO)c(Cl)c3F)c2cc1C(N)=O [III-11] | > 100 | > 10000 | > 10000 | > 10 | > 100 | > 5000 | > 100 | > 10000 | > 1000 | > 100
11 | COc1cc2nccc(Oc3c(F)cc(NC(=O)NCC(C)(C)O)c(Cl)c3F)c2cc1C(N)=O [III-12] | > 100 | > 10000 | > 10000 | > 10 | > 100 | > 5000 | > 100 | > 10000 | > 1000 | > 100
12 | COc1cc2nccc(Oc3c(F)cc(NC(=O)NC(CO)CO)c(Cl)c3F)c2cc1C(N)=O [III-13] | > 100 | > 10000 | > 10000 | > 10 | > 100 | > 5000 | > 100 | > 10000 | > 1000 | > 100
13 | COc1cc2nccc(Oc3c(F)cc(NC(=O)NC[C@H](O)CO)c(Cl)c3F)c2cc1C(N)=O [III-14] | > 100 | > 10000 | > 10000 | > 10 | > 100 | > 5000 | > 100 | > 10000 | > 1000 | > 100
14 | COc1cc2nccc(Oc3c(F)cc(NC(=O)NC[C@@H](O)CO)c(Cl)c3F)c2cc1C(N)=O [III-15] | > 100 | > 10000 | > 10000 | > 10 | > 100 | > 5000 | > 100 | > 10000 | > 1000 | > 100
15 | COc1cc2nccc(Oc3c(F)cc(NC(=O)NC4CC4)c(F)c3F)c2cc1C(N)=O [III-16] | > 100 | > 10000 | > 10000 | 2 to 10 | 60 to 100 | 2500 to 5000 | 30 to 100 | 5000 to 10000 | 200 to 1000 | > 100
16 | COc1cc2nccc(Oc3c(F)cc(NC(=O)NC4CC4)c(Br)c3F)c2cc1C(N)=O [III-17] | > 100 | > 10000 | > 10000 | > 10 | > 100 | > 5000 | > 100 | > 10000 | > 1000 | > 100
17 | COc1cc2nccc(Oc3c(Br)cc(NC(=O)NC4CC4)c(Cl)c3F)c2cc1C(N)=O [III-18] | > 100 | > 10000 | > 10000 | > 10 | > 100 | > 5000 | > 100 | > 10000 | > 1000 | > 100
18 | COc1cc2nccc(Oc3c(Cl)cc(NC(=O)NC4CC4)c(Cl)c3F)c2cc1C(N)=O [III-19] | > 100 | > 10000 | > 10000 | > 10 | > 100 | > 5000 | > 100 | > 10000 | > 1000 | > 100
19 | COc1cc2nccc(Oc3c(Cl)cc(NC(=O)NC4CC4)c(Br)c3F)c2cc1C(N)=O [III-20] | > 100 | > 10000 | > 10000 | > 10 | > 100 | > 5000 | > 100 | > 10000 | > 1000 | > 100
20 | COc1cc2nccc(Oc3c(F)cc(NC(=O)NC4(C)CC4)c(F)c3F)c2cc1C(N)=O [III-21] | > 100 | > 10000 | > 10000 | > 10 | > 100 | > 5000 | > 100 | > 10000 | > 1000 | > 100
21 | COc1cc2nccc(Oc3c(F)cc(NC(=O)NC4(C)CC4)c(Cl)c3F)c2cc1C(N)=O [III-22] | > 100 | > 10000 | > 10000 | > 10 | > 100 | > 5000 | > 100 | > 10000 | > 1000 | > 100
22 | COc1cc2nccc(Oc3c(F)cc(NC(=O)NC4CC4(F)F)c(F)c3F)c2cc1C(N)=O (centres unmarked) [III-23] | > 100 | > 10000 | > 10000 | > 10 | > 100 | > 5000 | > 100 | > 10000 | > 1000 | > 100
23 | COc1cc2nccc(Oc3c(F)cc(NC(=O)NC4CC4(F)F)c(Cl)c3F)c2cc1C(N)=O (centres unmarked) [III-24] | > 100 | > 10000 | > 10000 | > 10 | > 100 | > 5000 | > 100 | > 10000 | > 1000 | > 100
24 | COc1cc2nccc(Oc3c(F)cc(NC(=O)NCC4CC4)c(Cl)c3F)c2cc1C(N)=O [III-25] | > 100 | > 10000 | > 10000 | > 10 | > 100 | > 5000 | > 100 | > 10000 | > 1000 | > 100
25 | COc1cc2nccc(Oc3c(F)cc(NC(=O)NC4CCC4)c(Cl)c3F)c2cc1C(N)=O [III-26] | > 100 | > 10000 | > 10000 | > 10 | > 100 | > 5000 | > 100 | > 10000 | > 1000 | > 100
26 | COc1cc2nccc(Oc3c(F)cc(NC(=O)NC4COC4)c(Cl)c3F)c2cc1C(N)=O [III-27] | > 100 | > 10000 | > 10000 | > 10 | > 100 | > 5000 | > 100 | > 10000 | > 1000 | > 100
